This is an account of results in ChEMBL document CHEMBL5550163, “A novel approach to exploit Small-Molecule glucagon-like Peptide-1 receptor agonists with high potency” (Bioorg Med Chem, 2024).

The structures appear in SMILES notation. Active and inactive are the calls of the source. The calls are words filed in the database; no cut-off is given here.

The test system of experiment [1] is Mus musculus. Put plainly: Antidiabetic activity in hGLP1R-knock in mouse model assessed as reduction in blood glucose level at 3 mg/kg, ip pretreated with compound for 15 mins followed glucose addition and measured after 120 mins by OGTT analysis. The class given is functional, organism-based. To be noted: time 135.0 min.
For experiment [2], the target named is T1, Gastric inhibitory polypeptide receptor (Homo sapiens) (UniProt P48546).
T1 sequence (whole entry): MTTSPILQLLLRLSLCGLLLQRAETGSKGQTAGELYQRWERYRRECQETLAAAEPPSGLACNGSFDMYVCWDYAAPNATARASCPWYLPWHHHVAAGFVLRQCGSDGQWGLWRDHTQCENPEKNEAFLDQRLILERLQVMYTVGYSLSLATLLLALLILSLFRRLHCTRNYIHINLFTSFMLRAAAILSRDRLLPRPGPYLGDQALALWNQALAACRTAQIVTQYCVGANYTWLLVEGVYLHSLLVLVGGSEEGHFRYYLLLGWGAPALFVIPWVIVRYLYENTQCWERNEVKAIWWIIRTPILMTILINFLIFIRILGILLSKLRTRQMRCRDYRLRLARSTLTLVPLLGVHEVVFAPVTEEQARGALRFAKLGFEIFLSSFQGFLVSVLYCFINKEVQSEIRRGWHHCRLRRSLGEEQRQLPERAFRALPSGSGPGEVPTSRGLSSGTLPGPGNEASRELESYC
Nature of the experiment: Agonist activity human GIPR stably expressed in HEK293 cells assessed as […] in intracellular cAMP level up to 100 uM incubated for 30 mins by multiplate reader analysis. The class given is functional, cell-based. (cAMP levels reflect the balance of adenylyl cyclase and phosphodiesterase activity.)

The target of experiment [3] is T2, Glucagon-like peptide 1 receptor (Homo sapiens, UniProt P43220). Put plainly: Agonist activity at GLP-1R (unknown origin) transfected in HEK293 cells assessed as beta-arrestin2 recruitment incubated for 5 mins by Envision multiplate reader analysis. It counts as functional, cell-based.
Experiment [4] has as its system Mus musculus. Put plainly: Antidiabetic activity in hGLP1R-knock in mouse model assessed as reduction in blood glucose level at 3 mg/kg, ip pretreated with compound for 15 mins followed glucose addition and measured after 30 to 120 mins by OGTT analysis. The class given is functional, organism-based. Conditions: time 45-135 min.
The target in experiment [5] is T3, Glucagon-like peptide 2 receptor (Homo sapiens) (UniProt O95838).
T3 sequence (whole entry): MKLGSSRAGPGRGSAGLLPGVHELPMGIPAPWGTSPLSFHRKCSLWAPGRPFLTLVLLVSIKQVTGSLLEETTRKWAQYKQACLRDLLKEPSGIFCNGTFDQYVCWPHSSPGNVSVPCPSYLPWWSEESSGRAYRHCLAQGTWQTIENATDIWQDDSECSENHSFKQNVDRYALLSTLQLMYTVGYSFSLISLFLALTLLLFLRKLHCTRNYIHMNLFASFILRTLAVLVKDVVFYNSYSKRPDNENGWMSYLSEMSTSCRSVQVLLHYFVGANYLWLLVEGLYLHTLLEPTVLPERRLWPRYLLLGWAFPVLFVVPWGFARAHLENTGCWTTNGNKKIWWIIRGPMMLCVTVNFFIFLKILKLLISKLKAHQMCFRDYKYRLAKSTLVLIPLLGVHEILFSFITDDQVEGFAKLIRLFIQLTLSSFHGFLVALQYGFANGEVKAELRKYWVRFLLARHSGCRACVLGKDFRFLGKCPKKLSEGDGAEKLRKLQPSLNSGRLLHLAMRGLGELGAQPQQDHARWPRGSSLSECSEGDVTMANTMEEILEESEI
Nature of the experiment: Agonist activity human GLP-2R stably expressed in HEK293 cells assessed as […] in intracellular cAMP level up to 100 uM incubated for 30 mins by multiplate reader analysis. The class given is functional, cell-based.

The next experiment relates to Pancreatic islet. Nature of the experiment: Induction of insulin secretion in mouse Pancreatic islet cells expressing hGLP1R at 10 nM measured for 2 hrs by HTRF analysis. The class given is functional, cell-based. Background: TR-FRET usually uses a lanthanide donor and a delayed reading to cut background.
The subject of experiment [6] is Mus musculus. Put plainly: Antidiabetic activity in hGLP1R-knock in mouse model assessed as reduction in blood glucose AUC (0 to 120 mins) at 3 mg/kg, ip pretreated with compound for 15 mins followed glucose addition and measured after 120 mins by OGTT analysis. It counts as functional. Also on record: scale not given: the % may be the effect or the level left. To be noted: time 135 min, 2.25 h.

Experiment [7] concerns the target T2, Glucagon-like peptide 1 receptor. Nature of the experiment: Agonist activity human GLP-1R stably expressed in HEK293 cells assessed as increase in intracellular cAMP level incubated for 30 mins by multiplate reader analysis. It counts as functional, cell-based.
The target in experiment [8] is Glucagon receptor (Homo sapiens) (UniProt P47871). Put plainly: Agonist activity human GCGR stably expressed in HEK293 cells assessed as […] in intracellular cAMP level up to 100 uM incubated for 30 mins by multiplate reader analysis. The class given is functional, cell-based.
Experiment [9] concerns the target T2, Glucagon-like peptide 1 receptor. Put plainly: Agonist activity at GLP-1R (unknown origin) transfected in HEK293 cells assessed as beta-arrestin1 recruitment incubated for 5 mins by Envision multiplate reader analysis. The class given is functional, cell-based. On the technique in general: Recruitment of arrestin is a read-out of receptor activation apart from second messengers.

T2 sequence (P43220 whole entry): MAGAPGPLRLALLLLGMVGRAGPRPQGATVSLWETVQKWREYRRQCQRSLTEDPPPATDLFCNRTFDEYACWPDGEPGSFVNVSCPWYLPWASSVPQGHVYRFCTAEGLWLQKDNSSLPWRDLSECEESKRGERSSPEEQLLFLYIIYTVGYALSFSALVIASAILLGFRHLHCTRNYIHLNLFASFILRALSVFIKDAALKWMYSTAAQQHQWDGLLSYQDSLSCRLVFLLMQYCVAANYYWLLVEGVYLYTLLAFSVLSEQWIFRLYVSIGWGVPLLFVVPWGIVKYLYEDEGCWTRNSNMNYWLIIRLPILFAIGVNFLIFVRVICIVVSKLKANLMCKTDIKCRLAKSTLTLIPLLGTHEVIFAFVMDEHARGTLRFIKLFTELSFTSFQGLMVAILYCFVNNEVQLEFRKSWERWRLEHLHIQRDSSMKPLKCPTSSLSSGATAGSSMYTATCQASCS
Chain of Glucagon receptor (Homo sapiens) (P47871 whole entry): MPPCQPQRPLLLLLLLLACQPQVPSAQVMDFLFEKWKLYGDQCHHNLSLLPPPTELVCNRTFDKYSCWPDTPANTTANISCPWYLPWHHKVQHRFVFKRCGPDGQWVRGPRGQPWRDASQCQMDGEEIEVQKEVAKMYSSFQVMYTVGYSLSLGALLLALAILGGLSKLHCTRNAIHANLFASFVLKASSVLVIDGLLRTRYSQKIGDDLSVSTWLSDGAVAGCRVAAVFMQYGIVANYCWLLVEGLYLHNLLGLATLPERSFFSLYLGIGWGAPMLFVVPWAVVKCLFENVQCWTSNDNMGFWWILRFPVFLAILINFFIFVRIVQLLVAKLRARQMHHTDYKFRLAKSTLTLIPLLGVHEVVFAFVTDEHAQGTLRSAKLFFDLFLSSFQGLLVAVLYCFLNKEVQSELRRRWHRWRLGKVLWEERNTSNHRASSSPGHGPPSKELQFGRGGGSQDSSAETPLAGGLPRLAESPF

One may read the EC50 as the midpoint of the concentration-response curve. With `OCCSc1nnc(-c2ccc3c(c2)nc(CN2CCC(c4cccc(OCc5ccc(Cl)cc5F)n4)CC2)n3C[C@@H]2CCO2)[nH]1`, the result in the experiment with Mus musculus [1], with Mus musculus [4] and in the experiment on Pancreatic islet was Active. The outcome in experiment [2], in experiment [5] and in experiment [8] was inactive. The values for the EC50 in [3], in [7] and in experiment [9] were 581 nM, 0.065 nM and 936 nM, respectively. Also, the Activity in the experiment with Mus musculus [6] is 50%.

As to `NC(=O)CSc1nnc(-c2ccc3c(c2)nc(CN2CCC(c4cccc(OCc5ccc(Cl)cc5F)n4)CC2)n3C[C@@H]2CCO2)[nH]1`, the EC50 in [7] came out at 0.35 nM.

As to `N#CCSc1nnc(-c2ccc3c(c2)nc(CN2CCC(c4cccc(OCc5ccc(Cl)cc5F)n4)CC2)n3C[C@@H]2CCO2)[nH]1`, the EC50 in [7] turned out to be 0.67 nM.

Regarding `Fc1cc(Cl)ccc1COc1cccc(C2CCN(Cc3nc4cc(-c5nnc(SCC6CC6)[nH]5)ccc4n3C[C@@H]3CCO3)CC2)n1`, the EC50 in [7] worked out at 50 nM.

For the compound `OCCCSc1nnc(-c2ccc3c(c2)nc(CN2CCC(c4cccc(OCc5ccc(Cl)cc5F)n4)CC2)n3C[C@@H]2CCO2)[nH]1`, in experiment [7], the EC50 came to 0.48 nM.

Consider `CN(C)c1nnc(-c2ccc3c(c2)nc(CN2CCC(c4cccc(OCc5ccc(Cl)cc5F)n4)CC2)n3C[C@@H]2CCO2)[nH]1`, for which the EC50 in experiment [7] came to 6.8 nM.

With `CCSc1nnc(-c2ccc3c(c2)nc(CN2CCC(c4cccc(OCc5ccc(Cl)cc5F)n4)CC2)n3C[C@@H]2CCO2)[nH]1`, the EC50 in experiment [7] was determined as 1.1 nM.

Take `N#Cc1ccc(COc2cccc(C3CCN(Cc4nc5ccc(C(=O)O)cc5n4C[C@@H]4CCO4)CC3)n2)c(F)c1`: the outcome in the experiment on Mus musculus [1], with Mus musculus [4] and with Pancreatic islet was Active.

Turning to `CSc1nnc(-c2ccc3c(c2)nc(CN2CCC(c4cccc(OCc5ccc(Cl)cc5F)n4)CC2)n3C[C@@H]2CCO2)[nH]1`, the half-maximal effective concentration (EC50) in [7] came out at 0.67 nM.

Regarding `COc1nnc(-c2ccc3c(c2)nc(CN2CCC(c4cccc(OCc5ccc(Cl)cc5F)n4)CC2)n3C[C@@H]2CCO2)[nH]1`, the EC50 in [7] is 0.88 nM.

Consider `CC(C)CSc1nnc(-c2ccc3c(c2)nc(CN2CCC(c4cccc(OCc5ccc(Cl)cc5F)n4)CC2)n3C[C@@H]2CCO2)[nH]1`, for which the EC50 in experiment [7] was determined as 22 nM.

As to `CSc1nnc(-c2ccc3c(c2)nc(CN2CCC(c4cccc(OCc5ccc(Cl)cc5F)n4)CC2)n3C[C@@H]2CCO2)n1C`, in experiment [7], the EC50 was determined as 8.5 nM.

On to `N=C(CSc1nnc(-c2ccc3c(c2)nc(CN2CCC(c4cccc(OCc5ccc(Cl)cc5F)n4)CC2)n3C[C@@H]2CCO2)[nH]1)NO`, for which, in [7], the EC50 came to 0.52 nM.

For `CC(=O)CSc1nnc(-c2ccc3c(c2)nc(CN2CCC(c4cccc(OCc5ccc(Cl)cc5F)n4)CC2)n3C[C@@H]2CCO2)[nH]1`, in [7], the EC50 was 0.66 nM.

In the case of `NC(=O)NCCSc1nnc(-c2ccc3c(c2)nc(CN2CCC(c4cccc(OCc5ccc(Cl)cc5F)n4)CC2)n3C[C@@H]2CCO2)[nH]1`, the EC50 amounted to 349 nM in experiment [3], 0.11 nM in experiment [7] and 364 nM in experiment [9].

As to `NC(=O)CCCSc1nnc(-c2ccc3c(c2)nc(CN2CCC(c4cccc(OCc5ccc(Cl)cc5F)n4)CC2)n3C[C@@H]2CCO2)[nH]1`, the concentration for a half-maximal effect (EC50) in [3] turned out to be 322 nM; in experiment [7], 0.1 nM; in experiment [9], 566 nM.

As to `O=C1NCC(CSc2nnc(-c3ccc4c(c3)nc(CN3CCC(c5cccc(OCc6ccc(Cl)cc6F)n5)CC3)n4C[C@@H]3CCO3)[nH]2)O1` (stereo partly drawn), in experiment [7], the EC50 came out at 0.38 nM.

Consider `Fc1cc(Cl)ccc1COc1cccc(C2CCN(Cc3nc4cc(-c5nnc(SCc6ncc[nH]6)[nH]5)ccc4n3C[C@@H]3CCO3)CC2)n1`, for which the EC50 in experiment [7] stood at 2.5 nM.

With `Fc1cc(Cl)ccc1COc1cccc(C2CCN(Cc3nc4cc(-c5nnc(C(F)(F)F)[nH]5)ccc4n3C[C@@H]3CCO3)CC2)n1`, in experiment [7], the EC50 turned out to be 0.46 nM.

As to `N=C(N)CSc1nnc(-c2ccc3c(c2)nc(CN2CCC(c4cccc(OCc5ccc(Cl)cc5F)n4)CC2)n3C[C@@H]2CCO2)[nH]1`, in [7], the EC50 turned out to be 2.8 nM.

For the compound `CCc1nnc(-c2ccc3c(c2)nc(CN2CCC(c4cccc(OCc5ccc(Cl)cc5F)n4)CC2)n3C[C@@H]2CCO2)[nH]1`, the EC50 in experiment [7] was 0.75 nM.

In the case of `O=C(O)CSc1nnc(-c2ccc3c(c2)nc(CN2CCC(c4cccc(OCc5ccc(Cl)cc5F)n4)CC2)n3C[C@@H]2CCO2)[nH]1`, the EC50 in experiment [7] was 1 nM.

Take `OCCCCSc1nnc(-c2ccc3c(c2)nc(CN2CCC(c4cccc(OCc5ccc(Cl)cc5F)n4)CC2)n3C[C@@H]2CCO2)[nH]1`: in [7], the EC50 was found to be 4 nM.

Consider `NC(=O)CCCCSc1nnc(-c2ccc3c(c2)nc(CN2CCC(c4cccc(OCc5ccc(Cl)cc5F)n4)CC2)n3C[C@@H]2CCO2)[nH]1`, for which the EC50 in [7] turned out to be 0.62 nM.

Turning to `NC(=O)CCSc1nnc(-c2ccc3c(c2)nc(CN2CCC(c4cccc(OCc5ccc(Cl)cc5F)n4)CC2)n3C[C@@H]2CCO2)[nH]1`, in experiment [7], the EC50 was 0.59 nM.

Take `COCCSc1nnc(-c2ccc3c(c2)nc(CN2CCC(c4cccc(OCc5ccc(Cl)cc5F)n4)CC2)n3C[C@@H]2CCO2)[nH]1`: in experiment [7], the EC50 is 3.4 nM.

On to `NCCSc1nnc(-c2ccc3c(c2)nc(CN2CCC(c4cccc(OCc5ccc(Cl)cc5F)n4)CC2)n3C[C@@H]2CCO2)[nH]1`, for which, in experiment [7], the EC50 came to 0.42 nM.

Regarding `CC(C)Sc1nnc(-c2ccc3c(c2)nc(CN2CCC(c4cccc(OCc5ccc(Cl)cc5F)n4)CC2)n3C[C@@H]2CCO2)[nH]1`, the EC50 in experiment [7] came to 5.2 nM.
